Source: US4512986A, “Progrestationally active steroids” (priority 1983, dated 1985)

How the values were obtained:
[1] = target: T1, Cytosol Progesterone Receptor of the Estrogen-primed Immature Rabbit Uterus (Oryctolagus cuniculus, UniProt P06186); test: Relative binding affinity for progesterone receptor (competition with 3H-progesterone); design: species or system rabbit (New Zealand White); settings: for RBA: 16-18 hour incubation, progesterone = 100
T1 construct: cytosol progesterone receptor of the estrogen-primed immature rabbit uterus; tissue Dutchland Laboratories, Inc., Denver, Pa (animals); host or cells: uterus cytosol of estradiol-treated immature female New Zealand White rabbits
T1 sequence (P06186 1-930): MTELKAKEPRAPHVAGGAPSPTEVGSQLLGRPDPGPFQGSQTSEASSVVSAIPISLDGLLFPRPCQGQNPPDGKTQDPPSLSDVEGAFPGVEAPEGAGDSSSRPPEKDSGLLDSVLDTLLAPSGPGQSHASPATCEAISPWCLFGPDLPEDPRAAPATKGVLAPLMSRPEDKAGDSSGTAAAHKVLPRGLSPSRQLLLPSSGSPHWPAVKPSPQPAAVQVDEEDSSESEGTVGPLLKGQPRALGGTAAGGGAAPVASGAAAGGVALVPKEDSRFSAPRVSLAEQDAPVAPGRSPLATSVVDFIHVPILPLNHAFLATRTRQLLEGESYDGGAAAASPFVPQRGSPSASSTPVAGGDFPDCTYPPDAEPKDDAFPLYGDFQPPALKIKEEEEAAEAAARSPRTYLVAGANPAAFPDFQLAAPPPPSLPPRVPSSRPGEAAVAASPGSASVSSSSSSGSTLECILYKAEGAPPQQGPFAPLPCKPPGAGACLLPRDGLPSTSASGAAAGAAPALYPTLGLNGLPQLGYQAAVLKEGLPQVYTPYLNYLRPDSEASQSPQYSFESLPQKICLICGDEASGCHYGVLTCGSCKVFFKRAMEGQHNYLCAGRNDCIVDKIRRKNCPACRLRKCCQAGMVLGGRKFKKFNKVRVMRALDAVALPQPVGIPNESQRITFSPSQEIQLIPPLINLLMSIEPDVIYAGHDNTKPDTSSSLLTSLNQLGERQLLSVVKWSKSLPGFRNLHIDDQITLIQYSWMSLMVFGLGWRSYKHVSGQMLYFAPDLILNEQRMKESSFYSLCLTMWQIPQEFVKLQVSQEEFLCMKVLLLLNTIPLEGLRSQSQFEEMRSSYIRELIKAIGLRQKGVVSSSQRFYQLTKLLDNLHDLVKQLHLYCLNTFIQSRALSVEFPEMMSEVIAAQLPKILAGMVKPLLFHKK
Procedure: RBA values recorded at 0° C. after short incubation times (e.g., 2 hr) mainly reflect differences in the association rate constants of the competing ligands, whereas those measured after long incubation times (e.g., 16 to 24 hr) and/or higher temperatures predominantly are influenced by differences in the dissociation rate constants of the competing ligands. RBA's determined after short incubation times primarily reflect the association of the competitor compared to the natural hormone. Conversely, RBA's measured after long incubation times reflect the dissociation rate of the competitor compared to the natural hormone.
The assay components are combined, allowed to equilibrate, and unbound radioactivity removed by charcoal adsorption.
Animal species. Immature female New Zealand White rabbits weighing 0.8 to 1.0 kg (Dutchland Laboratories, Inc., Denver, Pa).
Pretreatment. Subcutaneous treatment with 15 μg 17β-estradiol/0.6 ml sesame oil each morning (0830 to 0930 hr) for three days. Animals sacrificed 24 hr after final injection.
Tissue. Uterus; each uterus weighed about 1.0 g and two or three uteri were pooled for each assay.
Buffer. (A) 0.01M TES, pH 7.4, 1 mM EDTA, 0.012M thioglycerol and 30% glycerol for cytosol preparation and ^3 H-steroid, unlabeled hormone and compound solutions. (B) 0.01M TES, pH 7.4, 1 mM EDTA and 0.012M thioglycerol for charcoal solution.
Homogenization. Five or six 5-second bursts with 30 second cooling periods between bursts using Brinkman Polytron Pt. 10 at 3.5 rheostat setting.
Temperature. 0°-4° C. for all steps.
Centrifugation. 45,000 rpm for 1 hr, 50 Ti rotor, Beckman L8-80 ultracentrifuge.
Incubation. 16-18 hr at 4°-6° C.
Concentations. 1×10^-10 M to 1×10^-5 M (7 concentrations).
Method. Charcoal adsorption method used to remove unbound radioactivity. Five-tenths ml of dextran-coated charcoal (0.5% Norit A and 0.05% dextran T-70) added to all tubes except total radioactivity tubes (0.5 ml buffer [B] added), tubes vortexed 3-5 sec, allowed to sit for 10 minutes and centrifuged 10 minutes at 2000 rpm in Beckman TJ-6 centrifuge at 0°-4° C.
Data Interpretation. […] The relative binding affinity (RBA) of each compound was calculated by using the following equation. [formula] where

[2] = test system: uterine endometrium of estrone-primed immature rabbits; test: Clauberg assay (progestational activity, McPhail); assay type: in vivo, rabbit (New Zealand White); settings: for McPhail Index (0-4) (X ± S.D.): 0 none, 4 maximal
[3] = test system: androgen target organs of castrate immature male rats; test: Anti-androgenic activity in the castrate immature rat assay; assay type: in vivo; settings: testosterone alone sc
Procedure: The oral anti-androgenic activity of 6-methyl-6-dehydro-17α-ethynylprogesterone was evaluated in the castrate immature male rat assay [Lerner et al., Proc. Soc. […] The assay is briefly described in the footnotes to Table 11.
*This assay employs castrate immature rats. For methods refer to Lerner,
L. J., A. Bianchi and A. Borman, Proc. Soc.
**Groups of rats (7/group) were given daily injections of 0.3 ml sesame
oil (control) or compound (in 0.3 ml sesame oil) for 7 days. Some groups
also concurrently received progestational compounds by the sc or oral
route of administration in order to evaluate antiandrogenic activity. One
day after the final doses, the animals were sacrificed and the androgen
target organs indicated were weighed.
***Statistically significant (p < 0.05) lower organ weights versus the
testosterone, sc, (400 μg/rat/day) group as determined by Analysis of
Variance coupled with Duncan's Multiple Range Test.

## CC(=O)[C@H]1CC[C@H]2[C@@H]3C[C@H](C)C4=CC(=O)CC[C@]4(C)[C@H]3CC[C@]12C [6α-Methylprogesterone, reference compound]
[1]; Assay 4
  RBA: 57%

## C#C[C@]1(C(C)=O)CC[C@H]2[C@@H]3CC[C@H]4CC(=O)CC[C@@H]4[C@H]3CC[C@@]21C [17α-Ethynyl-19-nor-5α-pregnane-3,20-dione]
[1]; Assay 4
  RBA: 67%
[1]; Assay 5
  RBA: 66%

## C#C[C@]1(C(C)=O)CC[C@H]2[C@@H]3CCC4=CC(=O)CC[C@@H]4[C@H]3CC[C@@]21C [17α-Ethynyl-19-norprogesterone, 17α-ethynyl-19-nor-4-pregnene-3,20-dione]
[1]; Assay 4
  RBA: 100%
[1]; Assay 5
  RBA: 133%
[1]; compared with progesterone
  progesterone receptor binding, in words: slightly greater than that of progesterone itself
[2]; compound given orally, progesterone sc
  progestational potency relative to subcutaneous progesterone, in words: roughly comparable to subcutaneously administered progesterone
[2]; compound given sc
  progestational potency relative to progesterone (sc): about 100 times
[2]; oral, 50 μg/rabbit daily
  Uterine Weight (X ± S.D.): 1.41 ± 0.02 g
  McPhail Index (0-4) (X ± S.D.): 0.38 ± 0.27
[2]; oral, 100 μg/rabbit daily
  Uterine Weight (X ± S.D.): 1.72 ± 0.36 g
  McPhail Index (0-4) (X ± S.D.): 1.17 ± 1.10
[2]; oral, 200 μg/rabbit daily
  Uterine Weight (X ± S.D.): 1.70 ± 0.33 g
  McPhail Index (0-4) (X ± S.D.): 0.83 ± 0.72
[2]; oral, 400 μg/rabbit daily
  Uterine Weight (X ± S.D.): 3.40 ± 1.14 g
  McPhail Index (0-4) (X ± S.D.): 3.75 ± 0.10
[2]; sc, 2.5 μg/rabbit daily
  Uterine Weight (X ± S.D.): 2.64 ± 0.22 g
  McPhail Index (0-4) (X ± S.D.): 3.25 ± 0.41
[2]; sc, 5 μg/rabbit daily
  Uterine Weight (X ± S.D.): 3.55 ± 0.54 g
  McPhail Index (0-4) (X ± S.D.): 3.97 ± 0.05
[2]; sc, 10 μg/rabbit daily
  Uterine Weight (X ± S.D.): 4.57 ± 0.67 g
  McPhail Index (0-4) (X ± S.D.): 3.92 ± 0.12
[2]; sc, 20 μg/rabbit daily
  Uterine Weight (X ± S.D.): 4.94 ± 0.87 g
  McPhail Index (0-4) (X ± S.D.): 4.00 ± 0.00

## C[C@]12CC[C@H]3[C@@H](CCC4=CC(=O)CC[C@@]43C)[C@@H]1CC[C@@H]2O [Testosterone]
[3]; 25 μg/rat daily
  Levator Ani weight (X ± S.D.): 36 ± 4 mg
  Seminal Vesicles weight (X ± S.D.): 23 ± 12 mg
  Ventral Prostate weight (X ± S.D.): 18 + 5 mg
[3]; 100 μg/rat daily
  Levator Ani weight (X ± S.D.): 53 ± 6 mg
  Seminal Vesicles weight (X ± S.D.): 66 ± 6 mg
  Ventral Prostate weight (X ± S.D.): 35 ± 5 mg
[3]; 400 μg/rat daily
  Levator Ani weight (X ± S.D.): 63 ± 14 mg
  Seminal Vesicles weight (X ± S.D.): 163 ± 43 mg
  Ventral Prostate weight (X ± S.D.): 70 ± 22 mg
